Reference: US5208224A, “Phosphorus containing compounds as antihypercholesterolemic and antiatherosclerotic agents” (Warner-Lambert Company, priority 1991, dated 1993)

Biological target: T1, acyl-CoA:cholesterol acyltransferase (ACAT) (Oryctolagus cuniculus, UniProt G1SFD9)
T1 construct: tissue preparation containing rabbit intestinal microsomes; from tissue; host or cells: rabbit intestinal microsomes
T1 sequence (G1SFD9 1-524): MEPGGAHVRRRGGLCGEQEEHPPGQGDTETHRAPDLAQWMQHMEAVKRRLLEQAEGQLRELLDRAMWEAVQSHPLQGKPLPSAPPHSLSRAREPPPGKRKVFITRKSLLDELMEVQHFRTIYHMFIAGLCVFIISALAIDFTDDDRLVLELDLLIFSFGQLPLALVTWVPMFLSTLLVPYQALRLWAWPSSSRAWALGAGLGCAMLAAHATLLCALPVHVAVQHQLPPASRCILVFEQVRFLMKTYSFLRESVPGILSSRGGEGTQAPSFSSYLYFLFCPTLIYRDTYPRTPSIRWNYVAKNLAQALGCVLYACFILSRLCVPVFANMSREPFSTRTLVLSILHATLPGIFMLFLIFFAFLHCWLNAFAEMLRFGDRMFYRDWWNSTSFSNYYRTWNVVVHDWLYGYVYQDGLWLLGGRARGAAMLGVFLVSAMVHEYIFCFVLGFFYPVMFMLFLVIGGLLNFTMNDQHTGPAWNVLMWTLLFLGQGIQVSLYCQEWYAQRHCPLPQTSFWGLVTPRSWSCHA
Experiment: In vitro inhibition of ACAT: formation of radiolabeled cholesterol oleate from radiolabeled oleic acid in rabbit intestinal microsomes
Assay type: biochemical
Details: not given
Text: The test assesses the ability of a test compound to inhibit the acylation of cholesterol by oleic acid by measuring the amount of radiolabeled cholesterol oleate formed from radiolabeled oleic acid in a tissue preparation containing rabbit intestinal microsomes.

| Structure (SMILES) | IC50 [nM] |
| --- | --- |
| CCCCCCCCCOP(=O)(OCC)N(CC(=O)Nc1c(C(C)C)cccc1C(C)C)Cc1ccccc1 (racemic) [Example 32, (±)-[2-[[2,6 Bis(1-methylethyl)phenyl]amino]-2-oxoethyl](phenylmethyl)phosphoramidic Acid, Ethyl Nonyl Ester] | 14 |
| CCCCCCCCCCC1CN(Cc2ccccc2)P(=O)(OCC(=O)Nc2c(C(C)C)cccc2C(C)C)O1 (racemic) [Example 30, (±)-N-[2,6-Bis(1-methylethyl)phenyl]2-[[5-decyl-3-(phenylmethyl)-1,3,2-oxazaphosphonolidin-2-yl]-oxy]acetamide, P-oxide] | 33 |
| CCCCCCCCCCCCC(C)OP(=O)(Oc1ccccc1)N(CC(=O)Nc1c(C(C)C)cccc1C(C)C)Cc1ccccc1 (racemic) [Example 35, (±)-[2-[[2,6-Bis(1-methylethyl)phenyl]amino]-2-oxoethyl](phenylmethyl)phosphoramidic Acid, 1-Methyltridecyl Phenyl Ester] | 160 |
| CCCCCCCCCOP(=O)(Oc1ccccc1)N(CC(=O)Nc1c(C(C)C)cccc1C(C)C)Cc1ccccc1 (racemic) [Example 34, (±)-[[[2,6-Bis(1-methylethyl)phenyl]amino]2-oxoethyl]-(phenylmethyl)phosphoramidic Acid, Nonyl Phenyl Ester] | 23 |

Same assay, conditions: rabbit intestinal microsomes; read-out: IC50 (concentration of test compound required to inhibit cholesteryl oleate formation to 50% of control)

| Structure (SMILES) | IC50 [nM] |
| --- | --- |
| CCCCCCC(C)OP(=O)(CC(=O)Nc1c(C(C)C)cccc1C(C)C)c1ccccc1 (racemic) [Example 11, (±)-2-[2,6-Bis(1-methylethyl)phenyl]amino]-2-oxoethyl]phenylphosphinic Acid, 1-Methylheptyl Ester] | 35 |
| CC(C)c1cccc(C(C)C)c1NC(=O)CP(=O)(c1ccccc1)c1ccccc1 [Example 2, N-2,6-Bis(1-methylethyl)phenyl-2-(diphenylphosphinyl)acetamide] | 2300 |

The next lines start with the values.

| IC50 [nM] | Structure (SMILES) |
| --- | --- |
| 23 | CCCCCCCCCOP(=O)(c1ccccc1)N(CC(=O)Nc1c(C(C)C)cccc1C(C)C)Cc1ccccc1 (racemic) [Example 31, (±)-N-[2-[2,6-Bis(1-methylethyl)phenyl]amino]-2-oxoethyl]-P-phenyl-N-(phenylmethyl)phosphonamidic Acid, Nonyl Ester] |
| 72 | CC(C)c1cccc(C(C)C)c1NC(=O)CP(=O)(OCc1ccccc1)OCc1ccccc1 [Example 36, [2-[[2,6-Bis(1-methylethyl)phenyl]amino]-2-oxoethyl]phosphonic Acid, Bis (Phenylmethyl)ester] |
| 29 | CCCCCCCCCCCCOP(=O)(CC(=O)Nc1c(C(C)C)cccc1C(C)C)c1ccccc1 (racemic) [Example 12, (±)-[2-[[2,6-Bis(1-methylethyl)phenyl]amino]-2-oxoethyl]phenylphosphinicAcid, Dodecyl Ester] |
